“Also recorded” adds a separate entry of the source.
Assays:
TMEM16B = biological target: T1, TMEM16B (Homo sapiens, UniProt Q9NQ90); experiment: TMEM16B fluorescence plate reader assay in FRT cells; type: cell-based
T1 construct: expressed in transfected cells; host or cells: Fischer Rat Thyroid (FRT) cells co-expressing YFP
T1 sequence (Q9NQ90 1-998): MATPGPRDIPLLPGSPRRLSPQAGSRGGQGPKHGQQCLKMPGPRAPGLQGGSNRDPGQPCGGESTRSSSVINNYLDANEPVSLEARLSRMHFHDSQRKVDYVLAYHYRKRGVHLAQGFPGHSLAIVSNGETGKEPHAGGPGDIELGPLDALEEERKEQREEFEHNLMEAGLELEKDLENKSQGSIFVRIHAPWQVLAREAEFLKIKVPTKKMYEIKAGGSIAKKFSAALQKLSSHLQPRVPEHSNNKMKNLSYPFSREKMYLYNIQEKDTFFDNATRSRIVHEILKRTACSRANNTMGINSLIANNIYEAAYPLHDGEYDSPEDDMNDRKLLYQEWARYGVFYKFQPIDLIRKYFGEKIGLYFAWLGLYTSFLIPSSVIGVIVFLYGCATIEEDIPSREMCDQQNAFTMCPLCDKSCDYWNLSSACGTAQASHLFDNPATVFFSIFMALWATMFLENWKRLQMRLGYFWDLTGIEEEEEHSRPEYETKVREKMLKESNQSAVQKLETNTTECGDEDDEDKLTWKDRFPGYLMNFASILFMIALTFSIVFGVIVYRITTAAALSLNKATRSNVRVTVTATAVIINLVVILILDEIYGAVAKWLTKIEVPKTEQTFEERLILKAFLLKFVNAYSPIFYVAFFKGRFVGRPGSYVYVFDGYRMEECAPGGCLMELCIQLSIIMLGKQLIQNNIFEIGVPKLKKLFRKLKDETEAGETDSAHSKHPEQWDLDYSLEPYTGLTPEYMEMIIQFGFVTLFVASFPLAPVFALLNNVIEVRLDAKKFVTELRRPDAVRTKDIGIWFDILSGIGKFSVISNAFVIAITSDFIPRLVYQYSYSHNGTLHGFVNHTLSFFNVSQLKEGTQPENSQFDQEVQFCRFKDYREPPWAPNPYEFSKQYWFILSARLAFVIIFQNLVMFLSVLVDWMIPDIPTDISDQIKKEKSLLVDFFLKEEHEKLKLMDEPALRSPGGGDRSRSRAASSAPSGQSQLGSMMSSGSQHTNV
Procedure: (§1) Concentration-dependent inhibition of TMEM16A measured by short-circuit current assay; TMEM16B and non-TMEM16 anion conductance measured using a fluorescence plate reader assay using FRT and HT-29 cells respectively; cell viability measured in FRT null cells.
(§2) We further assayed the compound potency on endogenous non-TMEM16A. Ca^2+-activated Cl^− channel in HT-29 cells.
TMEM16A functional assay. TMEM16A functional plate-reader assay was done as previously described. […] Test compounds (0.5 μl in DMSO) were added to each well at specified concentration. […] The initial rate of I− influx following each of the solution additions was computed from fluorescence data by nonlinear regression. TMEM16B activity was assayed similarly as described using FRT cells co-expressing YFP and TMEM16B.

[1] = tested on: non-TMEM16A Ca2+-activated Cl- channel in HT-29 cells; experiment: Non-TMEM16A CaCC plate reader assay in HT-29 cells expressing YFP; type: cell-based; conditions: Homo sapiens, non-TMEM16 anion conductance, fluorescence plate reader assay
Procedure: as §1, §2
Plate reader assays of chloride channel function, CFTR inhibition was assayed as described. […] Activity of non-TMEM16A CaCC was assayed as described in HT-29 cells expressing YFP.

[2] = tested on: rat made hypertensive with phenylephrine; experiment: Blood pressure in anesthetized rat made hypertensive with phenylephrine; type: in vivo; conditions: phenylephrine 0.25 mg IV, then 0.3 mg compound IV, femoral artery catheter
Procedure: TMEM16A is expressed in vascular smooth muscle and its inhibition may reduce blood pressure. […] Blood pressure was measured by femoral artery catheter.

mouse ileum = experiment: Ex vivo intestinal contractility of mouse ileum; conditions: increasing concentrations added to bath
Procedure: The effect of a compound according to one embodiment on intestinal contractility was determined in an ex vivo preparation of mouse ileum. Adult mice (CD1 genetic background) were euthanized by avertin overdose (200 mg/kg, 2,2,2-tribromethanol, Sigma-Aldrich) and ileal segments of ˜2 cm length were isolated and washed with Krebs-Henseleit buffer (pH 7.4, in mM: 118 NaCl, 4.7 KCl, 1.2 MgSO4, 1.2 KH2PO4, 25 NaHCO3, 2.5 CaCl2, 11 D-glucose). […] Tissues were stabilized for 60 min with resting tension of 0.5 g and solutions were changed every 15 min.

[3] = In vitro metabolic stability with rat liver microsomes and NADPH; type: in vitro ADME
Procedure: (3B) LC/MS traces showing total ion counts as a function of incubation time.
These compounds were incubated with rat liver microsomes and NADPH, and non-metabolized compounds were quantified by ESI-LCMS. […] It is speculated that Ani-9 could be oxidized at the aryl methyl or N—N bond; or hydrolyzed at the amide or hydrazone linkages.
Compounds (each 10 uM) were incubated for specific time points (2, 5, 15, 30, 60, 180 min) with shaking at 37° C. with rat liver microsomes (1 mg protein/mL, Sigma-Aldrich, St. Louis, Mo.) in potassium phosphate butler (100 mM) containing 1 mM NADPH. The mixture was then chilled on ice, and 0.5 mL of ice-cold ethyl acetate was added. Samples were centrifuged for 15 min at 3000 RPM. The supernatant was evaporated to dryness, and the residue was dissolved in 80 μL of mobile phase (acetonitrile:/water, 3:1, containing 0.1% formic acid) for LC/MS. Reverse-phase HPLC separation was carried out using a Waters C18 column (2.1 mm×100 mm, […]) equipped with a solvent delivery system (Waters model 2690, Milford, Mass.).

[4] = Pharmacokinetics in rats, serum concentration after IP or oral dosing; type: in vivo; conditions: rat
Procedure: The pharmacokinetics of compounds according to certain embodiments was studied in rats. […] After treatments blood samples were collected by tail vein puncture at specified time points (15, 30, 60, 120 and 180 min). Serum was separated by centrifuging blood samples at 5000 rpm for 15 min. […] The aliquot was then diluted to a total of 2 mL in PBS. A C18 solid-phase extraction (SPE) column (Thermo Fisher, Waltham, Mass.) was conditioned with methanol (2 mL) and PBS (2 mL). The aliquot was loaded onto the conditioned SPE column, and washed with PBS (2 mL) followed by water (2 mL), and the column then dried under vacuum for 5 min. Analytes were eluted with ethyl acetate (3 mL), and concentrated by rotary evaporation. The residues were reconstituted into methanol (150 μL), and then analyzed using a hybrid quadrupole Q-Exactive Orbitrap mass analyzer (Thermo Fisher, Waltham, Mass.), with an electrospray ionization source, employing parallel-reaction monitoring (PRM) to provide high analytical sensitivity.

`Cc1ccccc1NC(=O)c1c(NC(=O)C(F)(F)F)sc2c1CCCCC2` [Compound 6aa, 2-(2,2,2-Trifluoro-acetylamino)-5,6,7,8-tetrahydro-4H-cyclohepta[b]thiophene-3-carboxylic acid o-tolylamide] gave an IC50 (TMEM16B) of 1400 nM and an IC50 [1] of 4000 nM.
With `Cc1ccccc1NC(=O)c1c(NC(=O)C(F)(F)Br)sc2c1CCCCC2` [Compound 6bm, 2-(2-Bromo-2,2-difluoro-acetylamino)-5,6,7,8-tetrahydro-4H-cyclohepta[b]thiophene-3-carboxylic acid o-tolylamide] the “Effect on blood pressure” value [2] was “acute reduction in blood pressure”, the “Effect on spontaneous isometric contractions of ileum” value (mouse ileum) was “strongly inhibited; also recorded: suppression of isometric smooth muscle contractions” and the Compound remaining ([3]; rat liver microsomes + NADPH, 10 uM, 180 min) was about 30%. The “Metabolic stability compared to Ani-9 (in words)” value ([3]; time course of compound degradation, rat liver microsomes) was “remarkably greater stability”, the “Toxic effect (in words)” value ([4]; 4 mg/kg IP or oral) was “No toxic effect was seen” and the Serum concentration ([4]; 4 mg/kg intraperitoneal, for up to 2 h) was “greater than 3.5 μM”. The Peak serum concentration ([4]; 4 mg/kg intraperitoneal, peak at 60 min) was 6.5 µM, the Serum concentration ([4]; 4 mg/kg oral, for 3 h) was “greater than 0.5 μM” and the Peak serum concentration ([4]; 4 mg/kg oral, peak at 2 h) was 1.9 µM. The “Detectability in serum (in words)” value ([4]; after intraperitoneal (IP) or oral administration (PO)) was “detectable at pharmacologically relevant concentrations”.
